Experimental findings from US12187709B2 (Genentech, Inc., priority 2021, dated 2025) are described below.

Assay [1] addresses c-Cbl (Homo sapiens (Human), UniProt P22681). As to the kind of experiment: C-Cbl LCK Ub TR-FRET assay (C-cbl Lck HTRF). It is filed as biochemical. The essentials: (§1)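 Signal is read once the detection mix has stood 20 min at ambient temperature. Curves are anchored by DMSO as maximum and by omission of LCK as minimum.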
Background: Time-resolved FRET reads energy transfer from a long-lived donor to a nearby acceptor.

For assay [2], the target named is Human Cbl-b (residues 40-426) (Homo sapiens (Human), UniProt Q13191). Nature of the assay: Cbl-b SPR assay. In kind it is binding. The following applies: for Fold of selectivity: C-cbl SPR Kd vs Cbl-b SPR Kd; for Kd: SPR, 20° C. An outline of the steps:
(§2)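 Captured protein (1300-1500 RU for both isoforms) was probed in multi-cycle kinetics with 6 concentrations in 2-fold dilution, 60 s contact, 40 μl/min, dissociation 120-1200 s, double-referenced. Kinetic and affinity parameters came from a 1:1 binding fit. For slow off-rates, kd was set independently by a chaser-based method.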
On the technique in general: In SPR one partner is held on a chip, and binding of the other changes the refractive index at the surface.

In assay [3] the target is Cbl-b (Homo sapiens (Human), UniProt Q13191). Nature of the assay: Cbl-b LCK Ub TR-FRET assay (Cbl-b Lck HTRF). It is filed as biochemical. The following applies: for IC50: Cbl-b LCK Ub TR-FRET; for fold-selectivity (Cbl-b over C-cbl): ratio C-cbl Lck HTRF IC50 / Cbl-b Lck HTRF IC50. The essentials:
as §1

The target of assay [4] is c-Cbl (residues 47-435) (Homo sapiens (Human), UniProt P22681). Nature of the assay: c-Cbl SPR assay. It is filed as binding. The following applies: 20° C. The essentials:
as §2

SMILES strings stand for the structures.

c-Cbl, sequence (P22681 47-435): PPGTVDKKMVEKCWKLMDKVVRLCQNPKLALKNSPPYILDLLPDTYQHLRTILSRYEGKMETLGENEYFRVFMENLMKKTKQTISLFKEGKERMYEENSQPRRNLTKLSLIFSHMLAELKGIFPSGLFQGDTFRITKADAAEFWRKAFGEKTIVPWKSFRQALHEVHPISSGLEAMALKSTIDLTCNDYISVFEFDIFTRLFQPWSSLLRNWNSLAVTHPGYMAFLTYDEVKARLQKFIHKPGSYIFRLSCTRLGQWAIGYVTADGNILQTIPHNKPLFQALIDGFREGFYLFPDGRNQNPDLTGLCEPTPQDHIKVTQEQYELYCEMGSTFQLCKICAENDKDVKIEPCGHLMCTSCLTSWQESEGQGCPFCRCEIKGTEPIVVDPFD
c-Cbl (residues 47-435), sequence (P22681 47-435): as above
Cbl-b, sequence (Q13191 40-426): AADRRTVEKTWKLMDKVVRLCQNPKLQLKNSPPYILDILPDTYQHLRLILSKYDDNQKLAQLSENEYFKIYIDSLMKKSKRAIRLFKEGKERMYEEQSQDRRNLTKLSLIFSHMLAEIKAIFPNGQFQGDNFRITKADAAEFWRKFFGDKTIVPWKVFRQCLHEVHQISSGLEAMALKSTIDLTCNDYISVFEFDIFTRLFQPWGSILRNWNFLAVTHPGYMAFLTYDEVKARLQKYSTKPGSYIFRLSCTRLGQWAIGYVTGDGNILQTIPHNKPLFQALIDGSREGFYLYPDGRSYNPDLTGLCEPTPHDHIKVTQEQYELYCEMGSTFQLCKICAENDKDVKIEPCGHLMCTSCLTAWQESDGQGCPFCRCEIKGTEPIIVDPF
Human Cbl-b (residues 40-426), sequence (Q13191 40-426): as above

As for `CO[C@H]1C[C@](c2cc(NC3CC3)cc(N3Cc4c(cc(CNC5(C)CCC5)cc4C(F)(F)F)C3=O)c2)(c2nncn2C)C1` [Compound 214, 2-(3-(cyclopropylamino)-5-((1r,3r)-3-methoxy-1-(4-methyl-4H-1,2,4-triazol-3-yl)cyclobutyl)phenyl)-6-(((1-methylcyclobutyl)amino)methyl)-4-(trifluoromethyl)isoindolin-1-one], it took 9 nM to reach half-maximal inhibition in assay [1] (IC50). Besides, in assay [2], the Fold of selectivity is 4.7× and the Kd was 0.9 nM. Moreover, in assay [3], the concentration for half-maximal inhibition (IC50) came to 9.3 nM and the “fold-selectivity (Cbl-b over C-cbl)” value is on record as 0.97x. In assay [4], the Kd was 4.2 nM.

Consider `CO[C@H]1C[C@](c2cc(NC(C)C)cc(N3Cc4c(cc(CNC5(C)CCC5)cc4C(F)(F)F)C3=O)c2)(c2nncn2C)C1` [Compound 215, 2-(3-(isopropylamino)-5-((1r,3r)-3-methoxy-1-(4-methyl-4H-1,2,4-triazol-3-yl)cyclobutyl)phenyl)-6-(((1-methylcyclobutyl)amino)methyl)-4-(trifluoromethyl)isoindolin-1-one], for which, in assay [1], the IC50 stood at 12 nM. In addition, in assay [2], the Fold of selectivity was 4.1× and the Kd came to 1.7 nM. Also, in assay [3], 9.4 nM corresponded to half-maximal inhibition (IC50) and the “fold-selectivity (Cbl-b over C-cbl)” value is 1.3x. For the same molecule, the dissociation constant Kd in assay [4] was determined as 7 nM.

As for `CO[C@H]1C[C@](c2cc(NCCC#N)cc(N3Cc4c(cc(CNC5(C)CCC5)cc4C(F)(F)F)C3=O)c2)(c2nncn2C)C1` [Compound 216, 3-((3-((1r,3r)-3-methoxy-1-(4-methyl-4H-1,2,4-triazol-3-yl)cyclobutyl)-5-(6-(((1-methylcyclobutyl)amino)methyl)-1-oxo-4-(trifluoromethyl)isoindolin-2-yl)phenyl)amino)propanenitrile], in assay [1], the IC50 turned out to be 61 nM. Moreover, in assay [2], the Fold of selectivity is listed as 11× and the Kd worked out at 4.7 nM. Also, in assay [3], the IC50 is 14 nM and the “fold-selectivity (Cbl-b over C-cbl)” value is 4.2x. For the same molecule, the Kd in assay [4] turned out to be 51 nM.

`CO[C@H]1C[C@@](c2cc(NC3CCC3)cc(N3Cc4c(cc(CNC5(C)CCC5)cc4C(F)(F)F)C3=O)c2)(c2nncn2C)C1` [Compound 217, 2-(3-(cyclobutylamino)-5-((1s,3s)-3-methoxy-1-(4-methyl-4H-1,2,4-triazol-3-yl)cyclobutyl)phenyl)-6-(((1-methylcyclobutyl)amino)methyl)-4-(trifluoromethyl)isoindolin-1-one]: the IC50 is 97 nM in assay [1] and 18 nM in assay [3]. Moreover, the Fold of selectivity in assay [2] amounted to 13×. For the same molecule, the Kd in assay [2] is 7.5 nM; in assay [4], 91 nM. Further, the “fold-selectivity (Cbl-b over C-cbl)” value in assay [3] was 5.5x.

Molecule `CO[C@H]1C[C@@](c2cc(NC3CCCC3)cc(N3Cc4c(cc(CNC5(C)CCC5)cc4C(F)(F)F)C3=O)c2)(c2nncn2C)C1` [Compound 218, 2-(3-(cyclopentylamino)-5-((1s,3s)-3-methoxy-1-(4-methyl-4H-1,2,4-triazol-3-yl)cyclobutyl)phenyl)-6-(((1-methylcyclobutyl)amino)methyl)-4-(trifluoromethyl)isoindolin-1-one] gave an IC50 in assay [1] of 810 nM. In assay [2], this molecule had a Fold of selectivity of 10× and a Kd of 77 nM. In addition, in assay [3], inhibition was half-maximal at 81 nM (IC50) and the “fold-selectivity (Cbl-b over C-cbl)” value worked out at 10x. Besides, binding in assay [4] was characterised by a dissociation constant (Kd) of 770 nM.

In assay [1], `CC(C)O[C@H]1C[C@@](c2cccc(N3Cc4c(cc(CNC5(C)CCC5)cc4C(F)(F)F)C3=O)c2)(c2nncn2C)C1` [Compound 222, 2-(3-((1s,3s)-3-isopropoxy-1-(4-methyl-4H-1,2,4-triazol-3-yl)cyclobutyl)phenyl)-6-(((1-methylcyclobutyl)amino)methyl)-4-(trifluoromethyl)isoindolin-1-one] returned a 50% inhibitory concentration (IC50) of 270 nM. In assay [2], this molecule yielded a Fold of selectivity of 13× and a Kd of 14 nM. Besides, in assay [3], inhibition was half-maximal at 64 nM (IC50) and the “fold-selectivity (Cbl-b over C-cbl)” value came out at 4.2x. Besides, the affinity in assay [4], expressed as Kd, was 200 nM.

The term IC50 denotes the point on the concentration scale where inhibition reaches its midpoint. Low values mean greater potency, high ones weaker potency. The term Kd denotes a measure of binding affinity in units of concentration. Lower therefore signals tighter binding.
